The values that follow come from patent US11780826B2 (Amgen Inc., priority 2017, dated 2023).

Each structure is given as a SMILES string.

The assay relates to Bovine cardiac myofibrils. Put plainly: In vitro model of dose-dependent myofibril ATPase modulation (AC1.4, pyruvate kinase/lactate dehydrogenase-coupled ATPase assay at pCa25). Conditions: concentration at which ATPase activity was 1.4-fold higher than the bottom of the dose curve, mean of a minimum of two independent tests. The format is biochemical. The procedure, abridged: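 We measure calcium-buffered ATPase activity of detergent-skinned bovine cardiac myofibrils at pH 6.80 and 22° C with 1 mM ATP, using a PK/LDH-coupled NADH readout at 340 nm. Values come from four-parameter dose-response fits, averaged over at least two independent runs.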

Consider `Cc1ccc(C(C)NC(=O)[C@H]2CCCN2C(=O)[C@H]2CCCN(S(=O)(=O)N3CC(C#N)C3)C2)cc1F` (stereo partly drawn) [Example 155, 1-(((3S)-1-((3-cyano-1-azetidinyl)sulfonyl)-3-piperidinyl)carbonyl)-N-(-1-(3-fluoro-4-methylphenyl)ethyl)-D-prolinamide], for which the AC1.4 stood at 0.272 µM.
With `CC1(C#N)CN(S(=O)(=O)N2CCC[C@H](C(=O)N3CCC[C@@H]3C(=O)NCc3ccc(C(F)(F)F)cc3)C2)C1` [Example 156, 1-(((3S)-1-((3-cyano-3-methyl-1-azetidinyl)sulfonyl)-3-piperidinyl)carbonyl)-N-(4-(trifluoromethyl)benzyl)-D-prolinamide], the AC1.4 stood at 0.2727 µM.
For `N#CC1CN(S(=O)(=O)c2cccc(C(=O)N3CCC[C@@H]3C(=O)NCc3ccc(CF)cc3)c2)C1` [Example 157, 1-((3-((3-cyano-1-azetidinyl)sulfonyl)phenyl)carbonyl)-N-(4-(fluoromethyl)benzyl)-D-prolinamide], the AC1.4 was 0.2727 µM.
In the case of `N#CC1CN(S(=O)(=O)c2cccc(C(=O)N3CCC[C@@H]3C(=O)N[C@H](CO)c3cccc(C(F)(F)F)c3)c2)C1` [Example 158, 1-(3-((3-cyano-1-azetidinyl)sulfonyl)benzoyl)-N-((1S)-2-hydroxy-1-(3-(trifluoromethyl)phenyl)ethyl)-D-prolinamide] it was 0.273 µM; in that of `CS(=O)(=O)c1ccnc(C(=O)N2CCCC[C@@H]2C(=O)N[C@@H](c2cc(F)c(Cl)cc2F)C2CC2)c1` [Example 159, (2R)-N-((R)-(4-chloro-2,5-difluorophenyl)(cyclopropyl)methyl)-1-((4-(methylsulfonyl)-2-pyridinyl)carbonyl)-2-piperidinecarboxamide], 0.2735 µM.
Turning to `CCS(=O)(=O)c1cncc(C(=O)N2[C@@H](C(=O)N[C@@H](c3cc(F)c(Cl)cc3F)C3CC3)C[C@H]3C[C@H]32)c1` [Example 160, (1R,3R,5R)-N-((R)-(4-chloro-2,5-difluorophenyl)(cyclopropyl)methyl)-2-((5-(ethylsulfonyl)-3-pyridinyl)carbonyl)-2-azabicyclo[3.1.0]hexane-3-carboxamide], the AC1.4 turned out to be 0.274 µM.
In the case of `CS(=O)(=O)c1cccc(C(=O)N2[C@@H](C(=O)N[C@@H](c3ccc(C(F)(F)F)cc3F)C3CCC3)C[C@H]3C[C@H]32)c1` [Example 161, (1R,3R,5R)-N-((R)-cyclobutyl(2-fluoro-4-(trifluoromethyl)phenyl)methyl)-2-(3-(methylsulfonyl)benzoyl)-2-azabicyclo[3.1.0]hexane-3-carboxamide] it was 0.2746 µM; in that of `CN(Cc1ccc(Cl)cc1)C(=O)C1CCCN1C(=O)c1cccc(S(=O)(=O)N2CC(C#N)C2)c1` (centres unmarked) [Example 162, N-(4-chlorobenzyl)-1-((3-((3-cyano-1-azetidinyl)sulfonyl)phenyl)carbonyl)-N-methyl-prolinamide], 0.2767 µM.
In the case of `O=C(N[C@@H](c1cc(F)c(Cl)cc1F)C1CC1)[C@H]1C[C@H]2C[C@H]2N1C(=O)c1cncc(S(=O)(=O)C2CC2)c1` [Example 163, (1R,3R,5R)-N-((R)-(4-chloro-2,5-difluorophenyl)(cyclopropyl)methyl)-2-((5-(cyclopropylsulfonyl)-3-pyridinyl)carbonyl)-2-azabicyclo[3.1.0]hexane-3-carboxamide] it was 0.2773 µM.
In the case of `N#CC1CN(S(=O)(=O)N2CCC[C@H](C(=O)N3CCC[C@@H]3C(=O)NCc3ccc(Cl)cc3)C2)C1` [Example 164, N-(4-chlorobenzyl)-1-(((3S)-1-((3-cyano-1-azetidinyl)sulfonyl)-3-piperidinyl)carbonyl)-D-prolinamide] it was 0.2785 µM; in that of `CC[C@H](NC(=O)[C@H]1CCCN1C(=O)c1cccc(S(=O)(=O)N2CC(C#N)C2)c1)c1cc(F)cc(F)c1` [Example 165, 1-(3-((3-cyano-1-azetidinyl)sulfonyl)benzoyl)-N-((1S)-1-(3,5-difluorophenyl)propyl)-D-prolinamide], 0.2792 µM; in that of `O=C(NCc1ccc(C(F)(F)F)cc1)[C@H]1CCCN1C(=O)[C@H]1CCCN(S(=O)(=O)N2CCC2c2cccc(F)c2)C1` (stereo partly drawn) [Example 166, 1-(((3S)-1-((-2-(3-fluorophenyl)-1-azetidinyl)sulfonyl)-3-piperidinyl)carbonyl)-N-(4-(trifluoromethyl)benzyl)-D-prolinamide], 0.2807 µM.
The molecule `N#CC1CN(S(=O)(=O)N2CCC(F)=C(C(=O)N3CCC[C@@H]3C(=O)NCc3ccc(C(F)(F)F)cc3)C2)C1` [Example 168, 1-((1-((3-cyano-1-azetidinyl)sulfonyl)-4-fluoro-l,2,5,6-tetrahydro-3-pyridinyl)carbonyl)-N-(4-(trifluoromethyl)benzyl)-D-prolinamide] came in with an AC1.4 of 0.2875 µM.
In the case of `N#CC1CN(S(=O)(=O)N2CCC[C@H](C(=O)N3CCC[C@@H]3C(=O)N[C@H](CO)c3ccc(Cl)cc3)C2)C1` [Example 169, N-((1S)-1-(4-chlorophenyl)-2-hydroxyethyl)-1-(((3S)-1-((3-cyano-1-azetidinyl)sulfonyl)-3-piperidinyl)carbonyl)-D-prolinamide] it was 0.2892 µM; in that of `O=C(N[C@@H](c1cc(F)c(Cl)cc1F)C1COC1)[C@H]1C[C@H]2C[C@H]2N1C(=O)c1ccnc(C(F)(F)F)c1` [Example 171, (1R,3R,5R)-N-((R)-(4-chloro-2,5-difluorophenyl)(3-oxetanyl)methyl)-2-((2-(trifluoromethyl)-4-pyridinyl)carbonyl)-2-azabicyclo[3.1.0]hexane-3-carboxamide], 0.2934 µM.
Regarding `N#CC1CN(S(=O)(=O)N2C[C@H]3C[C@@H]2[C@H](C(=O)N2CCC[C@@H]2C(=O)NCc2ccc(C(F)(F)F)cc2)C3)C1` [Example 172, 1-(((1R,4R,6R)-2-((3-cyano-1-azetidinyl)sulfonyl)-2-azabicyclo[2.2.1]hept-6-yl)carbonyl)-N-(4-(trifluoromethyl)benzyl)-D-prolinamide], the AC1.4 was found to be 0.2959 µM.
`CS(=O)(=O)c1cccc(C(=O)N2C[C@@H](F)C[C@@H]2C(=O)N[C@@H](c2cc(F)c(C(F)(F)F)cc2F)C2CC2)c1` [Example 173, (4S)-N-((R)-cyclopropyl(2,5-difluoro-4-(trifluoromethyl)phenyl)methyl)-4-fluoro-1-(3-(methylsulfonyl)benzoyl)-D-prolinamide]: the AC1.4 worked out at 0.3001 µM.
As to `N#CC1CN(S(=O)(=O)N2CCN[C@H](C(=O)N3CCC[C@@H]3C(=O)NCc3ccc(Cl)c(F)c3)C2)C1` [Example 174, N-(4-chloro-3-fluorobenzyl)-1-(((2S)-4-((3-cyano-1-azetidinyl)sulfonyl)-2-piperazinyl)carbonyl)-D-prolinamide], the AC1.4 came out at 0.3052 µM.
In the case of `C[C@@H](NC(=O)[C@H]1COCCN1C(=O)[C@H]1CCCN(S(=O)(=O)N2CC(C#N)C2)C1)c1ccc(C(F)(F)F)cc1` [Example 175, (3R)-4-(((3S)-1-((3-cyano-1-azetidinyl)sulfonyl)-3-piperidinyl)carbonyl)-N-((1R)-1-(4-(trifluoromethyl)phenyl)ethyl)-3-morpholinecarboxamide] it was 0.3064 µM.
The same measure for `COc1cc(Cl)ccc1CNC(=O)[C@H]1CCCN1C(=O)[C@H]1CCCN(S(=O)(=O)N2CC(C#N)C2)C1` [Example 176, N-(4-chloro-2-methoxybenzyl)-1-(((3S)-1-((3-cyano-1-azetidinyl)sulfonyl)-3-piperidinyl)carbonyl)-D-prolinamide]: 0.3085 µM.
With `N#CC1CN(S(=O)(=O)N2CCC[C@H](C(=O)N3C[C@@H]4C[C@@H]4[C@@H]3C(=O)NCc3ccc(C(F)(F)F)cc3)C2)C1` [Example 177, (1S,2R,5R)-3-(((3S)-1-((3-cyano-1-azetidinyl)sulfonyl)-3-piperidinyl)carbonyl)-N-(4-(trifluoromethyl)benzyl)-3-azabicyclo[3.1.0]hexane-2-carboxamide], the AC1.4 was 0.3113 µM.
In the case of `CCS(=O)(=O)c1cccc(C(=O)N2[C@@H](C(=O)N[C@@H](c3cc(F)c(C(F)F)cc3F)C3CC3)C[C@H]3C[C@H]32)c1` [Example 178, (1R,3R,5R)-N-((R)-cyclopropyl(4-(difluoromethyl)-2,5-difluorophenyl)methyl)-2-(3-(ethylsulfonyl)benzoyl)-2-azabicyclo[3.1.0]hexane-3-carboxamide] it was 0.314 µM; in that of `CS(=O)(=O)c1cccc(C(=O)N2CCC[C@@H]2C(=O)N[C@@H](c2ccc(C(F)(F)F)c(F)c2)C2COC2)c1` [Example 179, N-((R)-(3-fluoro-4-(trifluoromethyl)phenyl)(3-oxetanyl)methyl)-1-(3-(methylsulfonyl)benzoyl)-D-prolinamide], 0.3231 µM.
In the case of `O=C(NCc1ccc(C(F)(F)F)cc1)[C@H]1CCCN1C(=O)[C@H]1CCCN(S(=O)(=O)N2CCC2c2cccc(Br)c2)C1` (stereo partly drawn) [Example 180, 1-(((3S)-1-((-2-(3-bromophenyl)-1-azetidinyl)sulfonyl)-3-piperidinyl)carbonyl)-N-(4-(trifluoromethyl)benzyl)-D-prolinamide] it was 0.3256 µM.
Regarding `Cc1ccc(CNC(=O)[C@H]2CCCN2C(=O)[C@H]2CCCN(S(=O)(=O)N3CC(C#N)C3)C2)c(F)c1` [Example 181, 1-(((3S)-1-((3-cyano-1-azetidinyl)sulfonyl)-3-piperidinyl)carbonyl)-N-(2-fluoro-4-methylbenzyl)-D-prolinamide], the AC1.4 stood at 0.3278 µM.
The same measure for `N#CC1CN(S(=O)(=O)N2CCCC(F)(C(=O)N3CCC[C@@H]3C(=O)NCc3ccc(C(F)(F)F)cc3)C2)C1` (stereo partly drawn) [Example 183, 1-((-1-((3-cyano-1-azetidinyl)sulfonyl)-3-fluoro-3-piperidinyl)carbonyl)-N-(4-(trifluoromethyl)benzyl)-D-prolinamide]: 0.3361 µM.
